Assay results: patent US4985445A, “Cancer cell metastasis inhibitors and novel compounds” (Meiji Seika Kaisha, Ltd., priority 1988, dated 1991)

Tests used:
[1] = Acute toxicity (LD50) by mice; conditions: mouse, in vivo, ip
[2] = test system: B16 subline of high pulmonary metastatic potential; experiment: Inhibition of pulmonary metastasis of B16 subline pretreated with compound and injected i.v. into BDF1 mice; format: in vivo, murine; mouse BDF1; conditions: for Inhibition of metastasis to the lungs (in words): B16 subline, BDF1 mice; for Pulmonary Metastasis (Mean ± Standard Deviation): 3 mice
Protocol: Based on the method described priviously (Method in Cancer Research, 15, 399-439, 1978), a subline of high metastatic potential (high pulmonary colonization) was selected from murine melanoma B16 by repeating the i.v. transplantation of the tumor cells in BDF1 mice and the isolation of pulmonary metastatic clones.
Evaluation of the metastasis inhibiting activity was performed based on the method described previously (Proc. Natl Acad. Sci. USA, 83, 1752-1756, 1986, Cancer Research, 46, 858-862, 1986).
Firstly, the B16 subline of high metastatic potential was inoculated into Dulbecco's ME medium (DME medium) supplemented with 10% bovine fetal serum and the compound represented by general formula (I) described above was added thereto.
The B16 subline of high pulmonary metastatic potential was inoculated into DME medium supplemented with 10% bovine fetal serum and 30, 100 or 300 μg/ml of N (3-phenylpropyl)-1-deoxynojirimycin was added thereto followed by incubation at 37° C. for 3 days in the presence of 5% CO2.
Inhibition of metastasis was examined in a manner similar to Test Example 2 except that N-(3-phenyl-2-propenyl)-1-deoxy-nojirimycin and N-(3-p-chlorophenyl-3-methyl-2-propenyl)-1-deoxynojirimycin were used instead of N-(3-phenylpropyl)-1-deoxynojirimycin in Test Example 2. In this test example, however, 2.5×10^5 cells each of the B16 subline were transplanted to 3 mice for each group.
The B16 subline of high pulmonary metastatic potential was inoculated into DME medium supplemented with 10% bovine fetal serum and 30 μg/ml of N-(4-phenoxy-trans-2-butenyl)-1-deoxynojirimycin was added thereto followed by incubation at 37° C. for 3 days in the presence of 5% CO2. […] The number of colonies of the B16 subline formed on the surface of and in the lung was counted.
Inhibition of metastasis was examined in a manner similar to Test Example 5 except that N-(2-phenoxyethyl)-1-deoxynojirimycin was used instead of N-(4-phenoxy-trans-2-butenyl)-1-deoxynojirimycin in Test Example 5.
The B16 sibline of high pulmonary metastatic potential was inoculated into DME medium supplemented with 10% bovine fetal serum and 10 μg/ml of D-glucaro-δ-lactam calcium salt was added thereto followed by incubation at 37° C. for 3 days in the presence of 5% CO2. […] The number of the colonies formed on the surface of and in the lung was counted.
Inhibition of metastasis was examined in a manner similar to Test Example 8 except that D-glucaro-δ-lactam methyl ester and D-glucaro-δ-lactam ethyl ester were used instead of D-glucaro-δ-lactam calcium salt in Test Example 8.
The B16 subline of high pulmonary metastatic potential was inoculated into DME medium supplemented with 10% bovine fetal serum and 10 μg/ml of 2,6-di-O-(acetylsalicyloyl)-D-gluco-δ-lactam was added thereto followed by incubation at 37° C. for 3 days in the presence of 5% CO2.
The B16 subline of high pulmonary metastatic potential was inoculated into DME medium supplemented with 10% bovine fetal serum and 30 μg/ml of 6-O-triphenylmethyl-D-gluco-δ-lactam was added thereto followed by incubation at 37° C. for 3 days in the presence of 5% CO2.
The B16 subline of high pulmonary metastatic potential was inoculated into DME medium supplemented with 10% bovine fetal serum and 30 μg/ml of 1-deoxynojirimycin was added thereto followed by incubation at 37° C. for 3 days in the presence of 5% CO2.

| Structure (SMILES) | LD50 [1] [mg/kg] | Inhibition of metastasis to the lungs (in words) [2] | Pulmonary Metastasis (Mean ± Standard Deviation) ([2]; Table 12, 10 μg/ml, None 53 ± 22.4) [no.] | Pulmonary Metastasis (Mean ± Standard Deviation) ([2]; Table 4, 30 μg/ml, 2.5×10^5 cells, None 109 ± 32.0) [no.] |
| --- | --- | --- | --- | --- |
| CC(=O)Oc1ccccc1C(=O)OC[C@H]1NC(=O)[C@H](OC(=O)c2ccccc2OC(C)=O)[C@@H](O)[C@@H]1O [2,6-di-O-(acetylsalicyloyl)-D-gluco-δ-lactam] | > 500 | markedly inhibited | 11.2 ± 3.5 |  |
| OC[C@@H]1[C@@H](O)[C@H](O)[C@@H](O)CN1CC=Cc1ccccc1 [N-(3-phenyl-2-propenyl)-1-deoxynojirimycin] | > 500 | markedly inhibited |  | 16.8 ± 12.6 |
